Test results: paper PMC9457828, “Chemical Markers and Pharmacological Characters of Pelargonium graveolens Essential Oil from Palestine” (Molecules, 2022)
Converted amounts (≈) assume the structure as drawn. Marks after values point to notes of the source that are not given here.

Experiments:
[1] = system: Staphylococcus aureus (2592); experiment: Broth microdilution, S. aureus; format: cell-based
Text: (§1) The microdilution method was used to assess the antimicrobial activity of the PGEO against selected bacterial and fungal strains according to the method [49].

[2] = system: methicillin-resistant S. aureus (MRSA); experiment: Broth microdilution, MRSA; format: cell-based; conditions: Staphylococcus aureus, clinical strain
Text: as §1

[3] = system: Escherichia coli (25,922); experiment: Broth microdilution, E. coli; format: cell-based
Text: as §1

[4] = system: Proteus vulgaris (8427); experiment: Broth microdilution, P. vulgaris; format: cell-based
Text: as §1

[5] = system: Klebsiella pneumonia (13,883); experiment: Broth microdilution, K. pneumoniae; format: cell-based
Text: as §1

[6] = system: Pseudomonas aeruginosa (9027); experiment: Broth microdilution, P. aeruginosa; format: cell-based
Text: as §1

[7] = system: Hep3B; experiment: cells; format: cell-based; conditions: Homo sapiens, 24 h, MTS
Protocol: Human cervical (HeLa), breast (MCF-7), and liver (Hep3B) cancer cell lines were cultured in RPMI-1640 medium (Sigma-Norwich, Norfolk, UK). Then each kind of the tested cells was treated with 10% fetal bovine serum mixed with 1% penicillin/streptomycin antibiotics (BI, Ghaziabad, UP, India), and 1% L-glutamine (Sigma-Norwich, Norfolk, UK). The cancer cells were cultured at 37 °C in a humidified atmosphere with 5% CO2 and then planted in a 96-well plate at 2.6 × 10^4 cells/well. After 2 days, the EO with different concentrations (10, 30, 60, 120, and 500 µg/mL) was applied to the cells for 24 h. According to the manufacturer’s guidelines, cell viability was estimated by the CellTilter 96® Aqueous One Solution Cell Proliferation (MTS) method. In the end, 100 μL of media and 20 μL of MTS solution were added to each well, and the well plates were incubated at 37 °C for 2 h. The absorbance was measured at 490 nm.

[8] = system: Candida albicans (ATCC 90028); experiment: Broth microdilution, C. albicans; format: cell-based; conditions: ATCC90028
Text: as §1

[9] = target: lipase; set-up: method as in earlier work; conditions: PGEO from Jordan; cited from earlier work
[10] = DPPH free radical scavenging activity; conditions: anti-DPPH radical activity, 30 min, 517 nm
Protocol: Spectrophotometry at 517 nm was used to measure the absorbance, which was then compared with the control. The DPPH suppressant effect was calculated using the formula below: […]

[11] = system: S. aureus; set-up: method as in PMID 26221178; conditions: cited from earlier work
[12] = system: E. coli; set-up: method as in PMID 26221178; conditions: cited from earlier work
[13] = system: S. aureus species; set-up: method as in PMID 31284397; conditions: cited from earlier work

## CC1(C)S[C@@H]2[C@H](NC(=O)[C@H](N)c3ccccc3)C(=O)N2[C@H]1C(=O)O [Ampicillin]
[1]
  MIC: 6.25 ± 0.2 µg/mL (≈ 17.9 µM)
[2]
  MIC: 32 ± 0.64 µg/mL (≈ 91.6 µM)
[3]
  MIC: 3.12 ± 0.56 µg/mL (≈ 8.93 µM)
[4]
  MIC: 3.25 ± 0.21 µg/mL (≈ 9.3 µM)
[5]
  MIC: 12.5 ± 0.05 µg/mL (≈ 35.8 µM)
[6]
  MIC: 100 ± 1.01 µg/mL (≈ 286 µM)

## O=C(O)c1cn(C2CC2)c2cc(N3CCNCC3)c(F)cc2c1=O [Ciprofloxacin]
[4]
  MIC: 0.06 ± 0.001 µg/mL (≈ 0.181 µM)
[5]
  MIC: 0.06 ± 0.001 µg/mL (≈ 0.181 µM)

## COc1cccc2c1C(=O)c1c(O)c3c(c(O)c1C2=O)C[C@@](O)(C(=O)CO)C[C@@H]3O[C@H]1C[C@H](N)[C@H](O)[C@H](C)O1 [Doxorubicin]
[7]
  IC50: 1.21 ± 1 µg/mL (≈ 2.23 µM)

## OC(Cn1cncn1)(Cn1cncn1)c1ccc(F)cc1F [Fluconazole]
[8]
  MIC: 3.12 ± 0.01 µg/mL (≈ 10.2 µM)

## CCCCCCCCCCC[C@@H](C[C@@H]1OC(=O)[C@H]1CCCCCC)OC(=O)[C@H](CC(C)C)NC=O [Orlistat]
[9]
  anti-lipase IC50: 0.114 ± 0.0 µg/mL

## Cc1c(C)c2c(c(C)c1O)CCC(C)(C(=O)O)O2 (stereo not drawn) [Trolox]
[10]
  IC50 against DPPH: 1.88 ± 0.45 ^a µg/mL

## CC(C)=CCCC(C)CCO (stereo not drawn) [citronellol]
[11]
  MIC S. aureus: 400 µg/mL (≈ 2560 µM)
[12]
  MIC E. coli: 300 µg/mL (≈ 1920 µM)
[13]
  MIC S. aureus: 30 µg/mL (≈ 192 µM)
